Measured values as given in patent US11192890B2, “FGFR kinase inhibitors and pharmaceutical uses” (AUCKLAND UNISERVICES LIMITED, priority 2017, dated 2021).
Read-outs that look alike come from different tables or passages of the source.

Legend:
[1] = target: T1, FGFR4 (Homo sapiens, UniProt P22455); assay: Isolated enzyme FRET-based Z-Lyte kinase inhibition assay; assay type: biochemical; details: means from 3 independent experiments; read-out: Isolate Enzyme Inhibition IC50, FGFR4
T1 construct: purchased Invitrogen
T1 sequence (P22455 22-802): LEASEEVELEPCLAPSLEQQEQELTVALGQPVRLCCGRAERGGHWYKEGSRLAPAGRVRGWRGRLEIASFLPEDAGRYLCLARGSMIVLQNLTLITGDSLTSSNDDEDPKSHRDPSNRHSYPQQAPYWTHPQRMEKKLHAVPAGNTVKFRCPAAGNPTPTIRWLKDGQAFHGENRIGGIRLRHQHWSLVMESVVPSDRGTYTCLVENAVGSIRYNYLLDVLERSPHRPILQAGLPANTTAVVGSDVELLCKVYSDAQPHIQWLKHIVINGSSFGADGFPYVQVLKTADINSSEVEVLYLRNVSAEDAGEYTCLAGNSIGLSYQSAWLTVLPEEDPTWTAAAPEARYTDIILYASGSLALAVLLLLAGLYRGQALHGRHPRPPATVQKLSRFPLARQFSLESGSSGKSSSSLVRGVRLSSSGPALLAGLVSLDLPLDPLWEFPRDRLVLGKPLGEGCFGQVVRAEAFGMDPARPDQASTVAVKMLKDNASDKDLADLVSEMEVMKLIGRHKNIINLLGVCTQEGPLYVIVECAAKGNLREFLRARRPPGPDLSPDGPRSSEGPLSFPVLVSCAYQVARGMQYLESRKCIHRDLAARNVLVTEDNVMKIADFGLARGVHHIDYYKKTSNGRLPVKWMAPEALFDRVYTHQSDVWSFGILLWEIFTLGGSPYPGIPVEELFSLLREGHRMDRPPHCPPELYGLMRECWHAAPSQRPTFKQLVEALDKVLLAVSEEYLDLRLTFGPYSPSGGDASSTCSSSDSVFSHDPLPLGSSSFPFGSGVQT
Experimental: (§1) FGFR1-4 and the Z-Lyte Kinase Assay Kit were purchased from Invitrogen. The concentration gradients from 5.1×10^−11 to 1.0×10^−6 mol/L were used for all the test compounds. The experiments were performed according to the instructions of the manufacturer.
(§2) FGFR1-4 isolated enzyme activity was determined using the FRET-based Z-Lyte kinase inhibition assay. The data are the means from 3 independent experiments.

[2] = target: T2, FGFR2 (Homo sapiens, UniProt P21802); assay: as above; assay type: biochemical; details: means from 3 independent experiments; read-out: Isolate Enzyme Inhibition IC50, FGFR2
T2 construct: purchased Invitrogen
T2 sequence (P21802 22-821): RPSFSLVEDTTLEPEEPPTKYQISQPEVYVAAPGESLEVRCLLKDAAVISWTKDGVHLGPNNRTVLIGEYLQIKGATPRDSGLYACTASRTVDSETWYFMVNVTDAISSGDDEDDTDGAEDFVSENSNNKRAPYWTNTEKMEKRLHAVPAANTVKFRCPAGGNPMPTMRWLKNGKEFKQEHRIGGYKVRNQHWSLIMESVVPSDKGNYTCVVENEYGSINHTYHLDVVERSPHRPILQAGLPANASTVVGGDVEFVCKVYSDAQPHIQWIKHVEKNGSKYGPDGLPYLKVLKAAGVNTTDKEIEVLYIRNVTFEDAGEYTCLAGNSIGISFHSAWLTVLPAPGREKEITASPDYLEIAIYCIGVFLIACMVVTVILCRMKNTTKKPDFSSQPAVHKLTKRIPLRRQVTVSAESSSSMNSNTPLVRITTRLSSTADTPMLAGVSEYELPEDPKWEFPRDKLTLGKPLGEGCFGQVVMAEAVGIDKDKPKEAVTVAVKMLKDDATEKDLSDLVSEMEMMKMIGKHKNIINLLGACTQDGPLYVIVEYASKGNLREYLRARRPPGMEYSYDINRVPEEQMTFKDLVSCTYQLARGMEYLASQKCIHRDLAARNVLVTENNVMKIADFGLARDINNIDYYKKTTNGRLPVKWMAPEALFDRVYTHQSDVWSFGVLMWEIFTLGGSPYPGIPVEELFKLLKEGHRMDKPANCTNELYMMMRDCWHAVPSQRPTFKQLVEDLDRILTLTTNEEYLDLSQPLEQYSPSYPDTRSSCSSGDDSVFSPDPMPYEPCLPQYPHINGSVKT
Experimental: as §1, §2

[3] = target: T3, FGFR3 (Homo sapiens, UniProt P22607); assay: as above; assay type: biochemical; details: means from 3 independent experiments; read-out: Isolate Enzyme Inhibition IC50, FGFR3
T3 construct: purchased Invitrogen
T3 sequence (P22607 23-806): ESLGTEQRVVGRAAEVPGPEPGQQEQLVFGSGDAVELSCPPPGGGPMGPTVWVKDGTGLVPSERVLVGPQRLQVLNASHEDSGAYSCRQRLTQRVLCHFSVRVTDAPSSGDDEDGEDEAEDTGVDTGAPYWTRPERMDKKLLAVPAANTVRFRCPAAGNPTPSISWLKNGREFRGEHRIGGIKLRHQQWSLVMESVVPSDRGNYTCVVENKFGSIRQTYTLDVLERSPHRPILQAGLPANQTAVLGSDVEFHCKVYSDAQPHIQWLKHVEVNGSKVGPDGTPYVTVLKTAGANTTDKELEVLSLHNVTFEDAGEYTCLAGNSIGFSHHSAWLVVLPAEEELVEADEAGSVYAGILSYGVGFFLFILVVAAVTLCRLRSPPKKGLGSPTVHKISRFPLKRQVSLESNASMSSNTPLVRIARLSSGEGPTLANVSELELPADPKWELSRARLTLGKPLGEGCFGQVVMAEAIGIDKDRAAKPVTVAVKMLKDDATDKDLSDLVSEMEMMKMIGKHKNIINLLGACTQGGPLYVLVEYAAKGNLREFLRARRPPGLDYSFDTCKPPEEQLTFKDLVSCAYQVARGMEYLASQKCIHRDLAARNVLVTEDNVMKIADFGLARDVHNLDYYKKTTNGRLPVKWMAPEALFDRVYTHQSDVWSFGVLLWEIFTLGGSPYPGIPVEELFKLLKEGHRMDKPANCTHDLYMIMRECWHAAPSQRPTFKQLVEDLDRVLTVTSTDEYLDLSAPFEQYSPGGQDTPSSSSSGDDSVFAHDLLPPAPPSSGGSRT
Experimental: as §1, §2

[4] = tested on: FGFR2-amplified SUM52 breast cancer cells; assay: Cell proliferation assay (SRB); assay type: cell-based
[5] = tested on: FGFR3-amplified SW780 bladder cancer cells; assay: Cell proliferation assay (SRB)
[6] = tested on: FGFR4-amplified Hep3B hepatocellular carcinoma cells; assay: Cell proliferation assay (SRB); assay type: cell-based; details: read-out: Cellular Anti-proliferative IC50, Hep3B
[7] = tested on: SW780 cells; assay: Oxic and anoxic anti-proliferative activity of the prodrugs; assay type: cell-based; details: Homo sapiens, SW780; oxic conditions; read-out: Cellular Anti-proliferative IC50, SW780, Oxic
[8] = tested on: H520 cells; assay: as above; details: for Hypoxic Cytotoxicity Ratio (HCR), H520: ratio of oxic and anoxic IC50
[9] = tested on: SW780 (FGFR3-amplified bladder cancer) xenograft; assay: Anti-tumour activity, SW780 xenograft; assay type: in vivo, NIH-III nude mice; details: 30 umol/kg, q3dx4, IP
Experimental: Specific pathogen-free homozygous female NIH-III nude mice (Charles River Laboratories, Wilmington, Mass.) were inoculated subcutaneously with a single cell suspension of SW780 cells (8×10^6 cells/100 μL with Matrigel; right flank) or SNU-16 cells (10×10^6 cells/100 μL; right flank). When tumour xenografts were established (typically 7-14 days for SW780 and 21-28 days for SNU-16) mice were randomized to treatment groups. Test compounds of the present invention were prepared in Water for Injection (WFI). Mice were dosed by intraperitoneal injection (0.01-0.03 ml/g) using the stated schedules and dose levels. […] Tumour size and body weights were measured at regular intervals. Tumour volume was calculated as […] (length×width^2)/6.

[10] = tested on: SUM52 cells; assay: Oxic and anoxic anti-proliferative activity of the prodrugs; details: for Hypoxic Cytotoxicity Ratio (HCR), SUM52: ratio of oxic and anoxic IC50
[11] = tested on: FGFR2 in SUM52 cells (phospho-ERK1/2); assay: Drug washout Western blot assay, SUM52 cells; assay type: cell-based; details: SUM52; for phospho-ERK1/2 after extensive drug washout: washout prior to FGF-stimulation
Experimental: Cells were seeded on the day prior to drug treatment (1 million cells/well; 6-well plate).
Drug stocks were prepared in media using 1 mM or 10 mM DMSO stock solutions. Media was aspirated from each well and replaced with 2 ml of drug-free media for control wells or 2 ml of diluted drug for treated wells. Cells were exposed to drug for 30 min. Recombinant FGF (50 ng/well) was added to each well 15 minutes prior to the end of the drug exposure and protein was extracted as below.
Cells were exposed to drug for 30 min as above. Media was aspirated and each well was washed with 5 ml drug-free media. The wash media was aspirated and replaced with 2 ml drug-free media and cells incubated for a further 30 minutes, after which the wash protocol was repeated. Cells were incubated for a further 90 minutes in drug-free media. Recombinant FGF (50 ng/well) was added to each well 15 minutes prior to the end of the drug-free incubation and protein was extracted as below.
Cell lysates were prepared in 250 μL of RIPA lysis buffer containing protease inhibitor (1:100). After incubation on ice (30 min) and centrifugation (13,000 rpm, 5 min, 4° C.) the supernatants containing the proteins were stored (−20° C.) until required. Bicinchoninic acid (BCA) assay was used to determine the protein concentration of individual cell lysate samples.

[12] = tested on: FGFR1 in H520 cells (phospho-ERK1/2); assay: Drug washout Western blot assay, H520 cells; assay type: cell-based; details: H520, 30 min, washout prior to FGF-stimulation
[13] = tested on: FGFR3 in SW780 cells (phospho-ERK1/2); assay: Drug washout Western blot assay, SW780 cells; assay type: cell-based; details: SW780; for phospho-ERK1/2 after extensive drug washout: washout prior to FGF-stimulation
[14] = SUM52, 120 h, read-out: Cellular Anti-proliferative IC50, SUM52, 5 days drug exposure
[15] = Homo sapiens, SW780, 120 h, read-out: Cellular Anti-proliferative IC50, SW780, 5 days drug exposure
[16] = read-out: Cellular Anti-proliferative IC50, H520, Oxic, oxic conditions
[17] = read-out: Cellular Anti-proliferative IC50, SUM52, Anoxic, 4 hours of anoxia, remainder of assay oxic
[18] = read-out: Cellular Anti-proliferative IC50, SUM52, Oxic, oxic conditions
[19] = read-out: Cellular Anti-proliferative IC50, H520, Anoxic, 4 hours of anoxia, remainder of assay oxic
[20] = read-out: Cellular Anti-proliferative IC50, SUM52, 5 days drug exposure
[21] = read-out: Cellular Anti-proliferative IC50, SW780, 5 days drug exposure
[22] = 100 nM, 30 min, then FGF-stimulation
[23] = 30 min exposure, 100 nM, with and without washout

Row | SMILES | IC50 [1] [nM] | IC50 ([6]; Homo sapiens, Hep3B) [nM] | IC50 [7] [nM] | IC50 [8, 16] [nM] | anti-tumour activity (median tumour growth delay) [9] | Hypoxic Cytotoxicity Ratio (HCR), SUM52 [10] | IC50 [10, 17] [nM] | IC50 [10, 18] [nM] | other results
1 | CNc1ncc2c(n1)N([C@@H]1CCN(C(=O)/C=C/CN(C)C)C1)C(=O)N(c1c(Cl)c(OC)cc(OC)c1Cl)C2 [Compound 102, (R,E)-3-(2,6-dichloro-3,5-dimethoxyphenyl)-1-(1-(4-(dimethylamino)but-2-enoyl)pyrrolidin-3-yl)-7-(methylamino)-3,4-dihydropyrimido[4,5-d]pyrimidin-2(1H)-one] | > 1000 | 1430 | – | – | – | – | – | – | IC50 [2]: 15 nM; IC50 [3]: 703 nM; IC50 [4, 14]: 51 nM; IC50 [5, 15]: 700 nM
2 | CNc1ncc2cc(-c3c(Cl)c(OC)cc(OC)c3Cl)c(=O)n(C3CCN(C(=O)/C=C/C[N+](C)(C)Cc4c([N+](=O)[O-])ncn4C)CC3)c2n1.[Br-] [Compound 208, (E)-4-(4-(6-(2,6-dichloro-3,5-dimethoxyphenyl)-2-(methylamino)-7-oxopyrido[2,3-d]pyrimidin-8(7H)-yl)piperidin-1-yl)-N,N-dimethyl-N-((1-methyl-4-nitro-1H-imidazol-5-yl)methyl)-4-oxobut-2-en-1-aminium bromide] | – | – | 2580 | 4150 | significant anti-tumour activity | 5 | 3 | 13 | time for tumours to reach 4 times relative tumour volume (RTV4) ([9]; control 12 days): ~24 days
3 | COc1cc(OC)c(Cl)c(-c2cc3cnc(NC(C)C)nc3n(Cc3cccc(NC(=O)/C=C/C[N+](C)(C)Cc4c([N+](=O)[O-])ncn4C)c3)c2=O)c1Cl.[Br-] [Compound 213, (E)-4-((3-((6-(2,6-dichloro-3,5-dimethoxyphenyl)-2-(isopropylamino)-7-oxopyrido[2,3-d]pyrimidin-8(7H)-yl)methyl)phenyl)amino)-N,N-dimethyl-N-((1-methyl-4-nitro-1H-imidazol-5-yl)methyl)-4-oxobut-2-en-1-aminium bromide] | – | – | – | – | significant anti-tumour activity | 5 | 7 | 40 | –
4 | COc1cc(OC)c(Cl)c(-c2cc3cnc(Nc4ccccc4)nc3n(C3CCN(C(=O)/C=C/C[N+](C)(C)Cc4c([N+](=O)[O-])ncn4C)CC3)c2=O)c1Cl.[Br-] [Compound 211, (E)-4-(4-(6-(2,6-dichloro-3,5-dimethoxyphenyl)-7-oxo-2-(phenylamino)pyrido[2,3-d]pyrimidin-8(7H)-yl)piperidin-1-yl)-N,N-dimethyl-N-((1-methyl-4-nitro-1H-imidazol-5-yl)methyl)-4-oxobut-2-en-1-aminium bromide] | – | – | 754 | 817 | significant anti-tumour activity | 16 | 12 | 199 | Hypoxic Cytotoxicity Ratio (HCR), H520 [8]: 20; IC50 [8, 19]: 41 nM
5 | CNc1ncc2c(n1)N([C@H]1CCCN(C(=O)/C=C/CN(C)C)C1)C(=O)N(c1c(Cl)c(OC)cc(OC)c1Cl)C2 [Compound 100, (S,E)-3-(2,6-dichloro-3,5-dimethoxyphenyl)-1-(1-(4-(dimethylamino)but-2-enoyl)piperidin-3-yl)-7-(methylamino)-3,4-dihydropyrimido[4,5-d]pyrimidin-2(1H)-one] | – | 245 | – | – | – | – | – | – | IC50 [4, 20]: 3.3 nM; IC50 [5, 21]: 28 nM
6 | CNc1ncc2c(n1)N([C@H]1CCN(C(=O)/C=C/CN(C)C)C1)C(=O)N(c1c(Cl)c(OC)cc(OC)c1Cl)C2 [Compound 103, (S,E)-3-(2,6-dichloro-3,5-dimethoxyphenyl)-1-(1-(4-(dimethylamino)but-2-enoyl)pyrrolidin-3-yl)-7-(methylamino)-3,4-dihydropyrimido[4,5-d]pyrimidin-2(1H)-one] | 287 | 48 | – | – | – | – | – | – | IC50 [2]: 3.3 nM; IC50 [3]: 17 nM; inhibition of phosphorylation of ERK1/2, no washout [11, 22]: complete inhibition; phospho-ERK1/2 after extensive drug washout ([11]; 100 nM, 30 min): restoration; phospho-ERK1/2 after extensive drug washout ([11]; 1000 nM, 30 min): restoration; reversible or irreversible inhibition of FGFR2 in cells [11, 23]: reversible inhibitor; IC50 [4, 14]: 4.8 nM; IC50 [5, 15]: 31 nM; phospho-ERK1/2 after extensive drug washout ([12]; 100 nM): restoration; phospho-ERK1/2 after extensive drug washout ([12]; 1000 nM): restoration; inhibition of phosphorylation of ERK1/2, no washout [13, 22]: complete inhibition; phospho-ERK1/2 after extensive drug washout ([13]; 100 nM, 30 min): restoration; phospho-ERK1/2 after extensive drug washout ([13]; 1000 nM, 30 min): restoration; reversible or irreversible inhibition of FGFR3 in cells [13, 23]: reversible inhibitor
7 | CNc1ncc2c(n1)N([C@H]1CCCN(C(=O)/C=C/CN(C)C)C1)C(=O)N(c1c(Cl)c(OC)cc(OC)c1Cl)C2 [Compound 101, (S,E)-3-(2,6-dichloro-3,5-dimethoxyphenyl)-1-(1-(4-(dimethylamino)but-2-enoyl)piperidin-3-yl)-7-(methylamino)-3,4-dihydropyrimido[4,5-d]pyrimidin-2(1H)-one] | < 100 | – | – | – | – | – | – | – | IC50 [4, 20]: 9 nM; IC50 [5, 21]: 59 nM; IC50 [6]: 163 nM
8 | COc1cc(OC)c(Cl)c(-c2cc3cnc(NC(C)C)nc3n(C3CCN(C(=O)/C=C/C[N+](C)(C)Cc4c([N+](=O)[O-])ncn4C)CC3)c2=O)c1Cl.[Br-] [Compound 209, (E)-4-(4-(6-(2,6-dichloro-3,5-dimethoxyphenyl)-2-(isopropylamino)-7-oxopyrido[2,3-d]pyrimidin-8(7H)-yl)piperidin-1-yl)-N,N-dimethyl-N-((1-methyl-4-nitro-1H-imidazol-5-yl)methyl)-4-oxobut-2-en-1-aminium bromide] | – | – | 1570 | 1480 | significant anti-tumour activity | 68 | 4 | 269 | Hypoxic Cytotoxicity Ratio (HCR), H520 [8]: 36; IC50 [8, 19]: 41 nM
